# Results as given in ChEMBL document CHEMBL1143751, “Isosteric probes provide structural requirements essential for detoxification of the phytoalexin brassinin by the fungal pathogen Leptosphaeria maculans” (2007).
# The source made the active and inactive calls. The calls are words filed in the database; no cut-off is given here.
# What was measured:
# Plenodomus lingam [1] = assay: Specific activity of Leptosphaeria maculans brassinin oxidase
# Plenodomus lingam [2] = assay: Antifungal activity against Leptosphaeria maculans BJ 125 at 0.50 mM; assay type: functional
# Plenodomus lingam [3] = assay: Antifungal activity against Leptosphaeria maculans BJ 125 at 0.10 mM; assay type: functional
# Plenodomus lingam [4] = assay: Antifungal activity against Leptosphaeria maculans BJ 125 at 0.20 mM; assay type: functional
SMILES,Activity (Plenodomus lingam [1]),inhibition at 500 µM (Plenodomus lingam [2]),inhibition at 100 µM (Plenodomus lingam [3]),inhibition at 200 µM (Plenodomus lingam [4]),Activity (Plenodomus lingam [3])
CNC(=O)NCc1c[nH]c2ccccc12,3280 mU/mg,,,,
CCCSC(=S)NCc1c[nH]c2ccccc12,inactive,100%,78%,100%,
CSC(=S)OCCc1c[nH]c2ccccc12,inactive,,,,
CCSC(=S)NCc1c[nH]c2ccccc12,434 mU/mg,100%,28%,76%,
CSC(=O)NCc1c[nH]c2ccccc12,2150 mU/mg,,,,
CSC(=S)NCc1c[nH]c2ccccc12 [BRASSININ],835 mU/mg,100%,,45%,inactive
CSC(=S)NCCc1c[nH]c2ccccc12,inactive,,,,
COC(=O)N(C)Cc1c[nH]c2ccccc12,inactive,,,,
COC(=O)CCc1c[nH]c2ccccc12,inactive,,,,

# Continued, in another order:
Activity (Plenodomus lingam [1]),SMILES,inhibition at 500 µM (Plenodomus lingam [2]),inhibition at 100 µM (Plenodomus lingam [3]),inhibition at 200 µM (Plenodomus lingam [4]),Activity (Plenodomus lingam [3])
inactive,CNC(=O)CCc1c[nH]c2ccccc12,,,,
944 mU/mg,CSC(=S)NCc1cn(C)c2ccccc12,,,,
inactive,CSC(=S)N(C)Cc1c[nH]c2ccccc12,100%,74%,100%,
4060 mU/mg,COC(=O)NCc1c[nH]c2ccccc12,,,,
inactive,CC(=O)NCc1c[nH]c2ccccc12,,,,
2560 mU/mg,CNC(=S)NCc1c[nH]c2ccccc12,,,,
